Source: ChEMBL document CHEMBL1129539, “2,4-diamino-5-deaza-6-substituted pyrido[2,3-d]pyrimidine antifolates as potent and selective nonclassical inhibitors of dihydrofolate reductases” (J Med Chem, 1996)

How the values were obtained:
[1] = target: T1, Dihydrofolate reductase (Pneumocystis carinii, UniProt P16184)
T1 sequence (P16184 whole entry): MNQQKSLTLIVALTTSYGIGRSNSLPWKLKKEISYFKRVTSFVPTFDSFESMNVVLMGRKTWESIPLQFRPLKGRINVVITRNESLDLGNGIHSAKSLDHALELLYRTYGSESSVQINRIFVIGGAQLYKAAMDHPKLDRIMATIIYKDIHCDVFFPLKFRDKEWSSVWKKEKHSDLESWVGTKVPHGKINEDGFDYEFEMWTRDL
Description: Inhibitory activity against Pneumocystis carinii dihydrofolate reductase (in 90 uM dihydrofolic acid)

[2] = target: T2, Dihydrofolate reductase (Rattus norvegicus, UniProt Q920D2)
T2 sequence (Q920D2 whole entry): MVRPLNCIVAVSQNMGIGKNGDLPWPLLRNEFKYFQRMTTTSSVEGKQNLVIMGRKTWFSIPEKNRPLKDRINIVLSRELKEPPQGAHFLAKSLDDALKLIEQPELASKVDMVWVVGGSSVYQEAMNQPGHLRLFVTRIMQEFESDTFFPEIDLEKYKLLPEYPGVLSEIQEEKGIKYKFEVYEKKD
Description: Inhibitory activity against rat liver dihydrofolate reductase (in 90 uM dihydrofolic acid)

[3] = target: T3, Bifunctional dihydrofolate reductase-thymidylate synthase (Toxoplasma gondii, UniProt Q07422)
T3 sequence (Q07422 whole entry): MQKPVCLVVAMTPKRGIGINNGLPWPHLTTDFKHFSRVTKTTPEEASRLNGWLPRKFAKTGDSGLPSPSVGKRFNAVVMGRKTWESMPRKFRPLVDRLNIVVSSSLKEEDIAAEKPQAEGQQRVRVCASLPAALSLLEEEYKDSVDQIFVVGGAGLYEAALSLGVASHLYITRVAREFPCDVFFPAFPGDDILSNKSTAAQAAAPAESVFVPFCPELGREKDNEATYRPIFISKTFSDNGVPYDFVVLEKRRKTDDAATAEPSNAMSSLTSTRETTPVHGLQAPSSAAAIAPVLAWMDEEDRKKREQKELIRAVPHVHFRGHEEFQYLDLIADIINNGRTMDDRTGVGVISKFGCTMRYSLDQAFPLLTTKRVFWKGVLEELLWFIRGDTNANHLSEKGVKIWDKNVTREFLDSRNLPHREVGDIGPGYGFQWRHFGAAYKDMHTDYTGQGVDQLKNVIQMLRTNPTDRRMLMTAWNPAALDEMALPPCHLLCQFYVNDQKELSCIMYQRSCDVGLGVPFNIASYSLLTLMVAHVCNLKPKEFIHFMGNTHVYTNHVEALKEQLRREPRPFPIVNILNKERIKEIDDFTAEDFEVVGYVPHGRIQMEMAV
Description: Inhibitory activity against Toxoplasma gondii dihydrofolate reductase (in 90 uM dihydrofolic acid)

[4] = target: T4, Dihydrofolate reductase (Homo sapiens, UniProt P00374); experiment: Inhibitory activity against recombinant human dihydrofolate reductase(in 50 uM dihydrofolic acid)
T4 sequence (P00374 whole entry): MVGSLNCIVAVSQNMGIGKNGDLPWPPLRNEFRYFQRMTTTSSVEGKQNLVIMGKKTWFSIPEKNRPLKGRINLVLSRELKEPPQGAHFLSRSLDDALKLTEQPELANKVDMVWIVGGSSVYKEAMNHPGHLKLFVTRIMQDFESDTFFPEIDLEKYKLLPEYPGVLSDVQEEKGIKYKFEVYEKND

[5] = target: Dihydrofolate reductase (Lactobacillus casei, UniProt P00381); experiment: Inhibitory activity against recombinant lc dihydrofolate reductase(in 50 uM dihydrofolic acid); parameters: species or system Lacticaseibacillus casei
Chain of Dihydrofolate reductase (Lactobacillus casei, UniProt P00381) (P00381 whole entry): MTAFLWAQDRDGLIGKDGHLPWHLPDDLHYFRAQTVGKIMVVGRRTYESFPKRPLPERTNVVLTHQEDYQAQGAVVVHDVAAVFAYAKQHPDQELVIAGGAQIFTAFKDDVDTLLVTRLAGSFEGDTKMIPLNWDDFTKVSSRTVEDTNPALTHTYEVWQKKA

[6] = target: T5, Dihydrofolate reductase (Escherichia coli, UniProt P0ABQ4); experiment: Inhibitory activity against recombinant ec dihydrofolate reductase(in 50 uM dihydrofolic acid)
T5 sequence (P0ABQ4 whole entry): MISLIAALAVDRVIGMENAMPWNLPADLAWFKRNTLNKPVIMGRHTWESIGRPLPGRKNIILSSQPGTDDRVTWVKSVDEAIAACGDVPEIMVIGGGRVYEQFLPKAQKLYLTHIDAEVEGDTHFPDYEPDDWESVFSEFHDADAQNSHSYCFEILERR

[7] = target: T3, Bifunctional dihydrofolate reductase-thymidylate synthase; remark: listed apart in the source
Description: Inhibitory activity against Toxoplasma gondii dihydrofolate reductase (in 50 uM dihydrofolic acid)

Row | Structure (SMILES) | IC50 [1] | IC50 [2] | IC50 [3] | IC50 [4] | IC50 [5] | IC50 [6] | IC50 [7]
1 | COc1cc(OC)c(OC)cc1CNc1cnc2nc(N)nc(N)c2c1 | 5500 nM | 1100 nM | 480 nM |  |  |  | 
2 | Nc1nc(N)c2cc(NCc3ccccc3)cnc2n1 |  | 2100 nM | 520 nM | 6200 nM |  |  | 
3 | COc1ccc(OC)c(CN(C)c2cnc3nc(N)nc(N)c3c2)c1 |  | 57 nM |  | 8500 nM | 5700 nM | 140 nM | 
4 | COc1cc(CN(C)c2cnc3nc(N)nc(N)c3c2)cc(OC)c1OC | 61 nM | 33 nM | 14 nM |  |  |  | 
5 | COc1ccc(CNc2cnc3nc(N)nc(N)c3c2)c2ccccc12 | 8200 nM | 430 nM | 380 nM |  |  |  | 
6 | COc1cc(CNc2cnc3nc(N)nc(N)c3c2)cc(OC)c1 |  |  | 1200 nM |  |  |  | 
7 | COc1cc(C(C)Nc2cnc3nc(N)nc(N)c3c2)cc(OC)c1OC (stereo unspecified) | 9200 nM | 1270 nM | 194 nM |  |  |  | 
8 | Nc1nc(N)c2cc(NCc3cccc4ccccc34)cnc2n1 | 3900 nM | 240 nM | 980 nM |  |  |  | 
9 | COc1ccc(OC)c(CNc2cnc3nc(N)nc(N)c3c2)c1 |  |  | 310 nM |  |  |  | 500 nM
10 | COc1cc(OC)c(CNc2cnc3nc(N)nc(N)c3c2)c(OC)c1 |  | 1200 nM | 230 nM |  |  |  | 
11 | COc1ccc(CNc2cnc3nc(N)nc(N)c3c2)cc1OC | 4800 nM | 1500 nM | 730 nM |  |  |  | 
12 | CN(Cc1ccccc1)c1cnc2nc(N)nc(N)c2c1 | 68 nM | 140 nM | 32 nM | 700 nM |  |  | 35 nM
13 | Nc1nc(N)c2cc(NCCc3ccccc3)cnc2n1 | 1940 nM | 280 nM | 4450 nM |  |  |  | 
14 | Nc1nc(N)c2cc(NCc3ccc(Oc4ccccc4)cc3)cnc2n1 | 24300 nM | 2900 nM | 3700 nM |  |  |  | 
15 | COc1cc(CNc2cnc3nc(N)nc(N)c3c2)cc(OC)c1OC |  |  | 350 nM |  |  |  | 1300 nM
16 | COc1ccc2c(CNc3cnc4nc(N)nc(N)c4c3)cccc2c1 | 15400 nM | 370 nM | 710 nM |  |  |  | 
17 | CN(Cc1ccc(C(=O)NC(=O)[C@H](N)CCC(=O)O)cc1)c1cnc2nc(N)nc(N)c2c1 |  |  |  | 650 nM | 170 nM | 13 nM | 
18 | CN(CCc1ccccc1)c1cnc2nc(N)nc(N)c2c1 | 1800 nM | 1400 nM | 920 nM |  |  |  | 
19 | COc1ccc(CN(C)c2cnc3nc(N)nc(N)c3c2)c(OC)c1OC | 79 nM | 30 nM | 26 nM | 530 nM |  |  | 26 nM
20 | COc1ccc(CNc2cnc3nc(N)nc(N)c3c2)c(OC)c1OC | 15300 nM | 3240 nM | 670 nM |  |  |  | 
21 | COc1cc(CN(C)c2cnc3nc(N)nc(N)c3c2)cc(OC)c1 |  | 72 nM | 31 nM | 2900 nM |  |  | 29 nM
22 | CCOc1cc(Cc2cnc(N)nc2N)cc(OCC)c1-n1cccc1 [EPIROPRIM] |  | 73000 nM | 470 nM |  |  |  | 
